Patent US11767341B2, “Lincosamide antibiotics and uses thereof” (President and Fellows of Harvard College, priority 2017, dated 2023)
In brackets after ≈: the same amount, converted by molar mass.

The compounds below were run on S. pneumoniae MMX 3028 cErmB (assay: MIC determination). Details: Streptococcus pneumoniae, MMX3028CERMB.
Type: cell-based

Q: With `CSC1O[C@H]([C@H](NC(=O)[C@H]2NC[C@@H]3C[C@H]4C[C@H]4CO[C@H]32)[C@H](C)Cl)C(O)C(O)[C@H]1O` (stereo in doubt) [FSA-507007] as the compound, how does the MIC read?
A: The MIC was 64 µg/mL (≈ 142 µM).

These compounds were tested on P. aeruginosa MMX Mex parent strain (assay: MIC determination). Details: Pseudomonas aeruginosa; P. aeruginosa MMX Mex parent strain; read-out: MIC.
Type: cell-based

Q: With `CSC1O[C@H]([C@H](NC(=O)[C@H]2NC[C@@H]3C[C@H]4C[C@H]4CO[C@H]32)[C@H](C)Cl)C(O)C(O)[C@H]1O` (stereo in doubt) [FSA-507007] as the compound, how does the MIC read?
A: Its MIC is greater than 64 µg/mL.

The compounds below were run on S. pneumoniae ATCC 49619 (assay: MIC determination). Details: Streptococcus pneumoniae, ATCC49619; S. pneumoniae ATCC 49619; read-out: MIC.
Type: cell-based

Q: How did the MIC turn out when `CSC1O[C@H]([C@H](NC(=O)[C@H]2NC[C@@H]3C[C@H]4C[C@H]4CO[C@H]32)[C@H](C)Cl)C(O)C(O)[C@H]1O` (stereo in doubt) [FSA-507007] was run?
A: The MIC was 0.12 µg/mL (≈ 0.266 µM).

What follows are compounds tested on P. aeruginosa ATCC 27853 (assay: MIC determination). Details: Pseudomonas aeruginosa, ATCC27853; P. aeruginosa ATCC 27853; read-out: MIC.
Type: cell-based

Q: With `CSC1O[C@H]([C@H](NC(=O)[C@H]2NC[C@@H]3C[C@H]4C[C@H]4CO[C@H]32)[C@H](C)Cl)C(O)C(O)[C@H]1O` (stereo in doubt) [FSA-507007] as the compound, how does the MIC read?
A: The MIC was greater than 64 µg/mL.

What follows are compounds tested on E. coli MP-74 LptD mutant (assay: MIC determination). Details: Escherichia coli.
Type: cell-based

Q: `CSC1O[C@H]([C@H](NC(=O)[C@H]2NC[C@@H]3C[C@H]4C[C@H]4CO[C@H]32)[C@H](C)Cl)C(O)C(O)[C@H]1O` (stereo in doubt) [FSA-507007] was tested. Which MIC did it give?
A: The MIC was 16 µg/mL (≈ 35.5 µM).

Each compound was assayed on S. pyogenes MMX 946 Macrolide-Resistant (assay: MIC determination). Details: Streptococcus pyogenes; S. pyogenes MMX 946 Macrolide-Resistant (MacRes); read-out: MIC.
Type: cell-based

Q: `CSC1O[C@H]([C@H](NC(=O)[C@H]2NC[C@@H]3C[C@H]4C[C@H]4CO[C@H]32)[C@H](C)Cl)C(O)C(O)[C@H]1O` (stereo in doubt) [FSA-507007] was tested. Which MIC did it give?
A: The MIC was 32 µg/mL (≈ 71 µM).

These compounds were tested on E. coli MMX 0121 ΔTolC (assay: MIC determination). Details: Escherichia coli.
Type: cell-based

Q: How did the MIC turn out when `CSC1O[C@H]([C@H](NC(=O)[C@H]2NC[C@@H]3C[C@H]4C[C@H]4CO[C@H]32)[C@H](C)Cl)C(O)C(O)[C@H]1O` (stereo in doubt) [FSA-507007] was run?
A: The MIC was 8 µg/mL (≈ 17.7 µM).

Each compound was assayed on E. coli MMX TolC parent strain (assay: MIC determination). Details: Escherichia coli; E. coli MMX TolC parent strain; read-out: MIC.
Type: cell-based

Q: How did the MIC turn out when `CSC1O[C@H]([C@H](NC(=O)[C@H]2NC[C@@H]3C[C@H]4C[C@H]4CO[C@H]32)[C@H](C)Cl)C(O)C(O)[C@H]1O` (stereo in doubt) [FSA-507007] was run?
A: The MIC was greater than 64 µg/mL.

These compounds were tested on S. aureus BAA 977 iErmA (assay: MIC determination). Details: Staphylococcus aureus, BAA977.
Type: cell-based

Q: `CSC1O[C@H]([C@H](NC(=O)[C@H]2NC[C@@H]3C[C@H]4C[C@H]4CO[C@H]32)[C@H](C)Cl)C(O)C(O)[C@H]1O` (stereo in doubt) [FSA-507007] was tested. Which MIC did it give?
A: The MIC was 0.5 µg/mL (≈ 1.11 µM).

These compounds were tested on K. pneumoniae ATCC 10031 (assay: MIC determination). Details: Klebsiella pneumoniae, ATCC10031; K. pneumoniae ATCC 10031; read-out: MIC.
Type: cell-based

Q: Which MIC does the source give for `CSC1O[C@H]([C@H](NC(=O)[C@H]2NC[C@@H]3C[C@H]4C[C@H]4CO[C@H]32)[C@H](C)Cl)C(O)C(O)[C@H]1O` (stereo in doubt) [FSA-507007] here?
A: The MIC was greater than 64 µg/mL.

The compounds below were run on S. aureus ATCC 29213 (assay: MIC determination). Details: Staphylococcus aureus, ATCC29213, S. aureus ATCC 29213; read-out: MIC.
Type: cell-based

Q: For `CSC1O[C@H]([C@H](NC(=O)[C@H]2NC[C@@H]3C[C@H]4C[C@H]4CO[C@H]32)[C@H](C)Cl)C(O)C(O)[C@H]1O` (stereo in doubt) [FSA-507007], which MIC is on record?
A: The MIC was 0.25 µg/mL (≈ 0.554 µM).

What follows are compounds tested on S. aureus MMX 3035 cErmA (assay: MIC determination). Details: Staphylococcus aureus, MMX3035CERMA; S. aureus MMX 3035 cErmA; read-out: MIC.
Type: cell-based

Q: Which MIC does the source give for `CSC1O[C@H]([C@H](NC(=O)[C@H]2NC[C@@H]3C[C@H]4C[C@H]4CO[C@H]32)[C@H](C)Cl)C(O)C(O)[C@H]1O` (stereo in doubt) [FSA-507007] here?
A: The MIC was greater than 64 µg/mL.

The compounds below were run on H. influenzae ATCC 49247 (assay: MIC determination). Details: Haemophilus influenzae, ATCC49247; H. influenzae ATCC 49247; read-out: MIC.
Type: cell-based

Q: How did the MIC turn out when `CSC1O[C@H]([C@H](NC(=O)[C@H]2NC[C@@H]3C[C@H]4C[C@H]4CO[C@H]32)[C@H](C)Cl)C(O)C(O)[C@H]1O` (stereo in doubt) [FSA-507007] was run?
A: The MIC was 2 µg/mL (≈ 4.43 µM).

Each compound was assayed on S. pyogenes ATCC 19615 (assay: MIC determination). Details: Streptococcus pyogenes, ATCC19615; S. pyogenes ATCC 19615; read-out: MIC.
Type: cell-based

Q: For `CSC1O[C@H]([C@H](NC(=O)[C@H]2NC[C@@H]3C[C@H]4C[C@H]4CO[C@H]32)[C@H](C)Cl)C(O)C(O)[C@H]1O` (stereo in doubt) [FSA-507007], which MIC is on record?
A: The MIC was no more than 0.06 µg/mL.

These compounds were tested on E. faecalis ATCC 29212 (assay: MIC determination). Details: Enterococcus faecalis, ATCC29212.
Type: cell-based

Q: Which MIC does the source give for `CSC1O[C@H]([C@H](NC(=O)[C@H]2NC[C@@H]3C[C@H]4C[C@H]4CO[C@H]32)[C@H](C)Cl)C(O)C(O)[C@H]1O` (stereo in doubt) [FSA-507007] here?
A: Its MIC is 16 µg/mL (≈ 35.5 µM).

Each compound was assayed on E. faecalis MMX 847 Macrolide-Resistant (assay: MIC determination). Details: Enterococcus faecalis; E. faecalis MMX 847 Macrolide-Resistant (MacRes); read-out: MIC.
Type: cell-based

Q: `CSC1O[C@H]([C@H](NC(=O)[C@H]2NC[C@@H]3C[C@H]4C[C@H]4CO[C@H]32)[C@H](C)Cl)C(O)C(O)[C@H]1O` (stereo in doubt) [FSA-507007] was tested. Which MIC did it give?
A: Its MIC is greater than 64 µg/mL.

The compounds below were run on E. coli MP-9 ΔTolC (assay: MIC determination). Details: Escherichia coli.
Type: cell-based

Q: With `CSC1O[C@H]([C@H](NC(=O)[C@H]2NC[C@@H]3C[C@H]4C[C@H]4CO[C@H]32)[C@H](C)Cl)C(O)C(O)[C@H]1O` (stereo in doubt) [FSA-507007] as the compound, how does the MIC read?
A: The MIC was 16 µg/mL (≈ 35.5 µM).

These compounds were tested on E. coli ATCC 25922 (assay: MIC determination). Details: Escherichia coli, ATCC25922, E. coli ATCC 25922; read-out: MIC.
Type: cell-based

Q: Which MIC does the source give for `CSC1O[C@H]([C@H](NC(=O)[C@H]2NC[C@@H]3C[C@H]4C[C@H]4CO[C@H]32)[C@H](C)Cl)C(O)C(O)[C@H]1O` (stereo in doubt) [FSA-507007] here?
A: Its MIC is greater than 64 µg/mL.

These compounds were tested on S. aureus MP-549 msr(a) USA 300 (assay: MIC determination). Details: Staphylococcus aureus, USA300, S. aureus MP-549 msr(a) USA 300.
Type: cell-based

Q: With `CSC1O[C@H]([C@H](NC(=O)[C@H]2NC[C@@H]3C[C@H]4C[C@H]4CO[C@H]32)[C@H](C)Cl)C(O)C(O)[C@H]1O` (stereo in doubt) [FSA-507007] as the compound, how does the MIC read?
A: Its MIC is 0.25 µg/mL (≈ 0.554 µM).

Each compound was assayed on B. fragilis ATCC 25285 (assay: MIC determination). Details: Bacteroides fragilis, ATCC25285; B. fragilis ATCC 25285; read-out: MIC.
Type: cell-based

Q: For `CSC1O[C@H]([C@H](NC(=O)[C@H]2NC[C@@H]3C[C@H]4C[C@H]4CO[C@H]32)[C@H](C)Cl)C(O)C(O)[C@H]1O` (stereo in doubt) [FSA-507007], which MIC is on record?
A: The MIC was 32 µg/mL (≈ 71 µM).

These compounds were tested on S. aureus Micromyx USA 300 (assay: MIC determination). Details: Staphylococcus aureus, USA300; S. aureus Micromyx USA 300; read-out: MIC.
Type: cell-based

Q: With `CSC1O[C@H]([C@H](NC(=O)[C@H]2NC[C@@H]3C[C@H]4C[C@H]4CO[C@H]32)[C@H](C)Cl)C(O)C(O)[C@H]1O` (stereo in doubt) [FSA-507007] as the compound, how does the MIC read?
A: Its MIC is 0.12 µg/mL (≈ 0.266 µM).

What follows are compounds tested on S. pneumoniae MMX 3031 cMefA (assay: MIC determination). Details: Streptococcus pneumoniae, MMX3031CMEFA.
Type: cell-based

Q: `CSC1O[C@H]([C@H](NC(=O)[C@H]2NC[C@@H]3C[C@H]4C[C@H]4CO[C@H]32)[C@H](C)Cl)C(O)C(O)[C@H]1O` (stereo in doubt) [FSA-507007] was tested. Which MIC did it give?
A: Its MIC is 0.12 µg/mL (≈ 0.266 µM).

The compounds below were run on P. aeruginosa MMX 3476 Δmex (assay: MIC determination). Details: Pseudomonas aeruginosa.
Type: cell-based

Q: For `CSC1O[C@H]([C@H](NC(=O)[C@H]2NC[C@@H]3C[C@H]4C[C@H]4CO[C@H]32)[C@H](C)Cl)C(O)C(O)[C@H]1O` (stereo in doubt) [FSA-507007], which MIC is on record?
A: Its MIC is 64 µg/mL (≈ 142 µM).

Each compound was assayed on C. difficile BAA 1805 (assay: MIC determination). Details: Clostridioides difficile, BAA1805; C. difficile BAA 1805; read-out: MIC.
Type: cell-based

Q: `CSC1O[C@H]([C@H](NC(=O)[C@H]2NC[C@@H]3C[C@H]4C[C@H]4CO[C@H]32)[C@H](C)Cl)C(O)C(O)[C@H]1O` (stereo in doubt) [FSA-507007] was tested. Which MIC did it give?
A: The MIC was 4 µg/mL (≈ 8.87 µM).
